Measured values: US4411898A, “7-[2-Oxyimino-2-(2-aminothiazol-4-yl)acetamido]-3-(1-carboxya lkyl-1H-tetrazol-5-yl)thiomethyl-3-cephem-4-carboxylic acid compounds” (Fujisawa Pharmaceutical Co., Ltd., priority 1977, dated 1983)
Converted amounts (≈) assume the structure as drawn. Where a name gives a salt, the structure may show the parent alone.

Legend:
Assay in all cases: In vitro antibacterial activity, two-fold agar-plate dilution method
Type in all cases: cell-based
Conditions in all cases: HI-agar, 37° C., 20 hours, read-out: minimal inhibitory concentration (MIC)
Escherichia coli 324 = tested on: Escherichia coli 324
Experimental: (§1) In vitro antibacterial activity was determined by the two-fold agar-plate dilution method as described below.
(§2) One loopful of an overnight culture of each test strain in Trypticase-soy broth (10^8 viable cells per ml.) was streaked on heart infusion agar (HI-agar) containing graded concentrations of test compounds, and minimal inhibitory concentration (MIC) was expressed in terms of μg/ml. after incubation at 37° C. for 20 hours.

Klebsiella aerogenes 417 = tested on: Klebsiella aerogenes 417
Experimental: as §1, §2

Proteus mirabilis 525 = tested on: Proteus mirabilis 525
Experimental: as §1, §2

Proteus vulgaris 2 = tested on: Proteus vulgaris 2
Experimental: as §1, §2

[1] = tested on: Staphylococcus aureus 209P JC-1
Experimental: as §1, §2

| Compound | MIC (Escherichia coli 324) [µg/mL] | MIC (Klebsiella aerogenes 417) [µg/mL] | MIC (Proteus mirabilis 525) [µg/mL] | MIC (Proteus vulgaris 2) [µg/mL] | MIC [1] [µg/mL] |
| --- | --- | --- | --- | --- | --- |
| CON=C(C(=O)NC1C(=O)N2C(C(=O)O)=C(CSc3nnnn3CC(=O)O)CSC12)c1csnn1 (stereo not drawn) [Test Compound (4), 7-[2-Methoxyimino-2-(1,2,3-thiadiazol-4-yl)acetamido]-3-(1-carboxymethyl-1H-tetrazol-5-yl)thiomethyl-3-cephem-4-carboxylic acid (syn isomer)] | 0.2 (≈ 0.369 µM) | 0.39 (≈ 0.72 µM) | 0.2 (≈ 0.369 µM) | – | – |
| CCCON=C(C(=O)NC1C(=O)N2C(C(=O)O)=C(CSc3nnnn3CC(=O)O)CSC12)c1csc(N)n1 (stereo not drawn) [Test Compound (1), 7-[2-n-Propoxyimino-2-(2-amino-1,3-thiazol-4-yl)acetamido]-3-(1-carboxymethyl-1H-tetrazol-5-yl)thiomethyl-3-cephem-4-carboxylic acid (syn isomer)] | – | – | – | 0.39 (≈ 0.668 µM) | 12.5 (≈ 21.4 µM) |
| C#CCON=C(C(=O)NC1C(=O)N2C(C(=O)O)=C(CSc3nnnn3CC(=O)O)CSC12)c1csc(N)n1 (stereo not drawn) [Test Compound (3), 7-[2-(2-Propynyloxyimino)-2-(2-amino-1,3-thiazol-4-yl)acetamido]-3-(1-carboxymethyl-1H-tetrazol-5-yl)thiomethyl-3-cephem-4-carboxylic acid (syn isomer)] | – | – | – | 0.025 (≈ 0.0431 µM) | 12.5 (≈ 21.6 µM) |
| C=CCON=C(C(=O)NC1C(=O)N2C(C(=O)O)=C(CSc3nnnn3CC(=O)O)CSC12)c1csc(N)n1 (stereo not drawn) [Test Compound (2), 7-[2-Allyloxyimino-2-(2-amino-1,3-thiazol-4-yl)acetamido]-3-(1-carboxymethyl-1H-tetrazol-5-yl)thiomethyl-3-cephem-4-carboxylic acid hydrochloride (syn isomer)] | – | – | – | 0.78 | 12.5 |
